Laboratory results taken from US6737383B1, “Herbicidal oxadiazolidines” (priority 1999, dated 2004).

How the values were obtained:
bedstraw = test: Test B pre/postemergence bedstraw; assay type: in vivo, Galium aparine
Outline: (§1)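 Herbicidal effect was estimated by eye on a ten-point control scale after plants spent twelve to sixteen days in a greenhouse following soil or foliar treatment. Foliar sprays targeted plants at one to four leaves; all doses were formulated in a non-phytotoxic solvent with surfactant.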

blackgrass = test: Test B pre/postemergence blackgrass; assay type: in vivo, Alopecurus myosuroides
Outline: as §1

surinam grass = test: Test B pre/postemergence surinam grass; assay type: in vivo, Brachiaria decumbens
Outline: as §1

cocklebur = test: Test B pre/postemergence cocklebur; assay type: in vivo, Xanthium strumarium
Outline: as §1

corn = test: Test B pre/postemergence corn; assay type: in vivo, Zea mays
Outline: as §1

crabgrass = test: Test B pre/postemergence crabgrass; assay type: in vivo, Digitaria sanguinalis
Outline: as §1

giant foxtail = test: Test B pre/postemergence giant foxtail; assay type: in vivo, Setaria faberii
Outline: as §1

morningglory = test: Test B pre/postemergence morningglory; assay type: in vivo, Ipomoea hederacea
Outline: as §1

pigweed = test: Test B pre/postemergence pigweed; assay type: in vivo, Amaranthus retroflexus
Outline: as §1

rape = test: Test B pre/postemergence rape; assay type: in vivo, Brassica napus
Outline: as §1

soybean = test: Test B pre/postemergence soybean; assay type: in vivo, Glycine max
Outline: as §1

sugar beet = test: Test B pre/postemergence sugar beet; assay type: in vivo, Beta vulgaris
Outline: as §1

velvetleaf = test: Test B pre/postemergence velvetleaf; assay type: in vivo, Abutilon theophrasti
Outline: as §1

wheat = test: Test B pre/postemergence wheat; assay type: in vivo, Triticum aestivum
Outline: as §1

wild oat = test: Test B pre/postemergence wild oat; assay type: in vivo, Avena fatua
Outline: as §1

purple nutsedge = test: Test B pre/postemergence purple nutsedge; assay type: in vivo, Cyperus rotundus
Outline: as §1

[1] = Postemergence, Rate 62 g/ha, scale of 0 to 10, 0 is no effect, 10 is complete control
[2] = Postemergence, Rate 500 g/ha, scale 0 to 10, 0 is no effect, 10 is complete control
[3] = Preemergence, Rate 62 g/ha, scale of 0 to 10 where 0 is no effect and 10 is complete control
[4] = Preemergence, Rate 125 g/ha, scale 0 to 10, 0 is no effect, 10 is complete control
[5] = Preemergence, Rate 500 g/ha, scale 0 to 10, 0 is no effect, 10 is complete control
[6] = Rate 250 g/ha, Postemergence, scale of 0 to 10 where 0 is no effect and 10 is complete control
[7] = Postemergence, Rate 125 g/ha, scale 0 to 10, 0 is no effect, 10 is complete control
[8] = Preemergence, Rate 500 g/ha, scale of 0 to 10 where 0 is no effect and 10 is complete control

Compound: CCOC(=O)C=C(Cn1c(=O)on(C(=O)N(c2ccc(F)cc2F)C(C)C)c1=O)OCC [Compound 519]
- Bedstraw plant response rating (bedstraw; [1]): 0
- Plant response rating, Bedstraw (bedstraw; [2]): 0
- Plant response rating, Bedstraw (bedstraw; [3]): 0
- Bedstraw plant response rating (bedstraw; [4]): 0
- Bedstraw plant response rating (0 to 10 scale) (bedstraw; Preemergence, Rate 250 g/ha): 0
- Bedstraw plant response rating (bedstraw; [5]): 0
- Plant response rating, Bedstraw (bedstraw; [6]): 0
- Blackgrass plant response rating (blackgrass; [1]): 0
- Blackgrass plant response rating (blackgrass; [7]): 0
- Plant response rating, Blackgrass (blackgrass; [2]): 0
- Plant response rating, Blackgrass (blackgrass; [3]): 0
- Blackgrass plant response rating (blackgrass; [4]): 0
- Blackgrass plant response rating (0 to 10 scale) (blackgrass; Preemergence, Rate 250 g/ha): 4
- Blackgrass plant response rating (blackgrass; [8]): 4
- Plant response rating, Blackgrass (blackgrass; [6]): 0
- B. signalgrass plant response rating (surinam grass; [1]): 0
- B. signalgrass plant response rating (surinam grass; [7]): 0
- Plant response rating, B. signalgrass (surinam grass; [2]): 0
- Plant response rating, B. signalgrass (surinam grass; [3]): 0
- B. signalgrass plant response rating (surinam grass; [4]): 0
- B. signalgrass plant response rating (0 to 10 scale, 0 is no effect, 10 is complete control) (surinam grass; Preemergence, Rate 250 g/ha): 0
- B. signalgrass plant response rating (surinam grass; [5]): 0
- Plant response rating, B. signalgrass (surinam grass; [6]): 0
- Cocklebur plant response rating (cocklebur; [1]): 0
- Cocklebur plant response rating (cocklebur; [7]): 0
- Plant response rating, Cocklebur (cocklebur; [2]): 0
- Plant response rating, Cocklebur (cocklebur; [3]): 0
- Cocklebur plant response rating (cocklebur; [4]): 0
- Cocklebur plant response rating (0 to 10 scale) (cocklebur; Preemergence, Rate 250 g/ha): 0
- Cocklebur plant response rating (cocklebur; [8]): 0
- Plant response rating, Cocklebur (cocklebur; [6]): 0
- Corn plant response rating (corn; [1]): 0
- Corn plant response rating (corn; [7]): 0
- Plant response rating, Corn (corn; [2]): 0
- Plant response rating, Corn (corn; [3]): 0
- Corn plant response rating (corn; [4]): 0
- Corn plant response rating (0 to 10 scale) (corn; Preemergence, Rate 250 g/ha): 0
- Corn plant response rating (corn; [8]): 0
- Plant response rating, Corn (corn; [6]): 0
- Crabgrass plant response rating (crabgrass; [1]): 0
- Crabgrass plant response rating (crabgrass; [7]): 2
- Plant response rating, Crabgrass (crabgrass; [2]): 6
- Plant response rating, Crabgrass (crabgrass; [3]): 7
- Crabgrass plant response rating (crabgrass; [4]): 8
- Crabgrass plant response rating (0 to 10 scale) (crabgrass; Preemergence, Rate 250 g/ha): 10
- Crabgrass plant response rating (crabgrass; [8]): 10
- Plant response rating, Crabgrass (crabgrass; [6]): 6
- Giant foxtail plant response rating (giant foxtail; [1]): 4
- Giant foxtail plant response rating (giant foxtail; [7]): 4
- Plant response rating, Giant foxtail (giant foxtail; [2]): 6
- Plant response rating, Giant foxtail (giant foxtail; [3]): 10
- Giant foxtail plant response rating (giant foxtail; [4]): 10
- Giant foxtail plant response rating (0 to 10 scale) (giant foxtail; Preemergence, Rate 250 g/ha): 10
- Giant foxtail plant response rating (giant foxtail; [8]): 10
- Plant response rating, Giant foxtail (giant foxtail; [6]): 4
- Morningglory plant response rating (morningglory; [1]): 0
- Morningglory plant response rating (morningglory; [7]): 0
- Plant response rating, Morningglory (morningglory; [2]): 0
- Plant response rating, Morningglory (morningglory; [3]): 0
- Morningglory plant response rating (morningglory; [4]): 0
- Morningglory plant response rating (0 to 10 scale) (morningglory; Preemergence, Rate 250 g/ha): 0
- Morningglory plant response rating (morningglory; [8]): 0
- Plant response rating, Morningglory (morningglory; [6]): 0
- Redroot pigweed plant response rating (pigweed; [1]): 0
- Redroot pigweed plant response rating (pigweed; [7]): 0
- Plant response rating, Redroot pigweed (pigweed; [2]): 0
- Plant response rating, Redroot pigweed (pigweed; [3]): 0
- Redroot pigweed plant response rating (pigweed; [4]): 0
- Redroot pigweed plant response rating (0 to 10 scale) (pigweed; Preemergence, Rate 250 g/ha): 0
- Redroot pigweed plant response rating (pigweed; [8]): 0
- Plant response rating, Redroot pigweed (pigweed; [6]): 0
- Rape plant response rating (rape; [1]): 0
- Rape plant response rating (rape; [7]): 0
- Plant response rating, Rape (rape; [2]): 0
- Plant response rating, Rape (rape; [3]): 0
- Rape plant response rating (rape; [4]): 0
- Rape plant response rating (0 to 10 scale) (rape; Preemergence, Rate 250 g/ha): 0
- Rape plant response rating (rape; [8]): 0
- Plant response rating, Rape (rape; [6]): 0
- Soybean plant response rating (soybean; [1]): 3
- Soybean plant response rating (soybean; [7]): 3
- Plant response rating, Soybean (soybean; [2]): 4
- Plant response rating, Soybean (soybean; [3]): 0
- Soybean plant response rating (soybean; [4]): 0
- Soybean plant response rating (0 to 10 scale) (soybean; Preemergence, Rate 250 g/ha): 0
- Soybean plant response rating (soybean; [8]): 0
- Plant response rating, Soybean (soybean; [6]): 4
- Sugarbeets plant response rating (sugar beet; [1]): 0
- Sugarbeets plant response rating (sugar beet; [7]): 0
- Plant response rating, Sugarbeets (sugar beet; [2]): 0
- Plant response rating, Sugarbeets (sugar beet; [3]): 0
- Sugarbeets plant response rating (sugar beet; [4]): 0
- Sugarbeets plant response rating (0 to 10 scale) (sugar beet; Preemergence, Rate 250 g/ha): 0
- Sugarbeets plant response rating (sugar beet; [8]): 0
- Plant response rating, Sugarbeets (sugar beet; [6]): 0
- Velvetleaf plant response rating (velvetleaf; [1]): 2
- Velvetleaf plant response rating (velvetleaf; [7]): 2
- Plant response rating, Velvetleaf (velvetleaf; [2]): 4
- Plant response rating, Velvetleaf (velvetleaf; [3]): 0
- Velvetleaf plant response rating (velvetleaf; [4]): 0
- Velvetleaf plant response rating (0 to 10 scale) (velvetleaf; Preemergence, Rate 250 g/ha): 0
- Velvetleaf plant response rating (velvetleaf; [8]): 0
- Plant response rating, Velvetleaf (velvetleaf; [6]): 4
- Wheat plant response rating (wheat; [1]): 0
- Wheat plant response rating (wheat; [7]): 0
- Plant response rating, Wheat (wheat; [2]): 0
- Plant response rating, Wheat (wheat; [3]): 0
- Wheat plant response rating (wheat; [4]): 0
- Wheat plant response rating (0 to 10 scale) (wheat; Preemergence, Rate 250 g/ha): 0
- Wheat plant response rating (wheat; [8]): 0
- Plant response rating, Wheat (wheat; [6]): 0
- Wild oats plant response rating (wild oat; [1]): 0
- Wild oats plant response rating (wild oat; [7]): 0
- Plant response rating, Wild oats (wild oat; [2]): 0
- Plant response rating, Wild oats (wild oat; [3]): 0
- Wild oats plant response rating (wild oat; [4]): 0
- Wild oats plant response rating (0 to 10 scale) (wild oat; Preemergence, Rate 250 g/ha): 0
- Wild oats plant response rating (wild oat; [8]): 0
- Plant response rating, Wild oats (wild oat; [6]): 0
- Nutsedge plant response rating (purple nutsedge; [7]): 0
- Plant response rating, Nutsedge (purple nutsedge; [2]): 0
- Plant response rating, Nutsedge (purple nutsedge; [3]): 0
- Nutsedge plant response rating (purple nutsedge; [4]): 0
- Nutsedge plant response rating (purple nutsedge; [8]): 0
